Key:
[1] = system: eIF4E:eIF4G^604–646 complex; test: NanoBit eIF4E:eIF4G^604–646 protein complementation assay in PC-3 cells; type: cell-based; conditions: for Activity in NanoBit system: PC-3 cells, 4 h
Procedure: (§1) Twenty-four hours prior to transfection, cells (HEK293, PANC-1 or PC-3) were seeded at a cell density of 800,000 cells per well of a six-well plate (Thermo Fisher Scientific). Transfections in six-well plates were performed using Lipofectamine 3000 (Thermo Fisher Scientific) with 3 μg of the indicated plasmid vectors per well according to the manufacturer’s instructions. For knockdown experiment, siRNA Ctrl or 4EBP1 at a final concentration of 100 nM were included in the transfection mixture. Transfections utilising GFP and GFP-MYC contained 1 μg of each vector or empty vector, respectively. In the case of transfections utilising any of the 4EBP1 constructs described, only 0.5 μg of each vector or empty vector was used, respectively. After a 24- or 48-h (as indicated in the figure legends) incubation period, the medium was removed and cells were washed with PBS saline. Cells were then either lysed directly for immunoprecipitation experiments or were trypsinised and re-suspended in Opti-MEM media with 0% FCS to perform NanoBit and cell viability experiments in a 96-well format.
(§2) Either HEK293, PC-3 or PANC-1 cells were spun down at 1000 rpm for 5 min at room temperature. Supernatant was then discarded, and cells re-suspended to a density of to 220,000 cells per millilitre in Opti-MEM I cell media containing 0% FBS with no added red phenol. Then 90 μl of the cell re-suspension was added to the wells of a white opaque 96-well plate. Compounds were then titrated onto the 96-well plate using a suitable twofold dilution series from a 10× stock solution containing 10% v/v DMSO. Control wells were also treated with a 10% DMSO only stock solution to yield a final residual DMSO concentration of 1% v/v. The 96-well plates were then incubated for 4 h at 37 °C, with 5% CO2. Wells were then treated with a solution of Nano-Glo live substrate, which was prepared as per the manufacturer’s instructions. The plates were then shaken for 1 min at 22 °C and luminescence assessed after additional 50 min using an Envision Multi-Plate reader (Perkin-Elmer). Plates were then multiplexed with CellTiter-GLO 2.0 reagent (PROMEGA) and cellular viability determined according to the manufacturer’s instruction. NanoBit titration data was used to determine IC50 values for drug potency by fitting 4 parameter logistic curves using GraphPad Prism 7.0.

[2] = system: eIF4E:eIF4G^604–646 complex; test: NanoBit eIF4E:eIF4G^604–646 protein complementation assay in HEK293 cells; type: cell-based; conditions: for Extent of disruption of NanoBit signal / eIF4F complex: HEK293, relative to eIF4G YLL-LgBit binding control or maximal dose of Torin
Procedure: (§3) Opaque 96-well plates were seeded with 20,000 HEK293 cells per well in DMEM and 10% FCS. Transfections in 96-well plate format were performed using FUGENE6 (Roche) with 100 ng of the indicated plasmid vectors per well as outlined in the manufacturer’s instructions (Fig. 1). Twenty-four hours after transfection, the medium was replaced with 100 μl of Opti-MEM I cell media containing 0% FCS with no added red phenol (Thermo Fisher Scientific) and luminescence activity assayed (as outlined in “NanoBit and cell viability experiments” section). Transfections utilising 4EBP1 constructs were performed with either 50 ng of the indicated construct or empty vector.
as §1, §2

[3] = system: eIF4E:eIF4G^604–646 complex; test: NanoBit eIF4E:eIF4G^604–646 protein complementation assay in PANC-1 cells; type: cell-based
Procedure: as §1
as §2, with “Wells were then treated with a solution of Nano-Glo live substrate, which was prepared as per the manufacturer’s instructions.” left out, “NanoBit titration data was used to determine IC50 values for drug potency by fitting 4 parameter logistic curves using GraphPad Prism 7.0.” left out

HEK293 cells = test: Cell viability by intracellular ATP (CellTiter-GLO) in HEK293 cells; type: cell-based; conditions: HEK293, 4-h treatment
Procedure: as §2

[4] = system: full-length NanoLuc luciferase; test: Full-length NanoLuc luciferase counter-screen in HEK293 cells; type: cell-based; conditions: HEK293 transfected with full-length NanoLuc
eIF4E-eIF4G interface = conditions: published value; read-out: in vitro Kd; cited from earlier work
[5] = target: T1, eIF4E:eIF4G^604–646 complex (Homo sapiens, UniProt P06730); test: NanoBit eIF4E:eIF4G^604–646 protein complementation assay in HEK293 cells; type: cell-based; conditions: HEK293, 4 h, normalised to DMSO and to full-length NanoLuc counter-screen; read-out: IC50, NanoBit eIF4E:eIF4G^604–646 signal
T1 construct: linked either to full-length eIF4E or the eIF4G^604–646 fragment; expressed in transfected cells; host or cells: HEK293
T1 sequence (P06730 2-217, one chain of several): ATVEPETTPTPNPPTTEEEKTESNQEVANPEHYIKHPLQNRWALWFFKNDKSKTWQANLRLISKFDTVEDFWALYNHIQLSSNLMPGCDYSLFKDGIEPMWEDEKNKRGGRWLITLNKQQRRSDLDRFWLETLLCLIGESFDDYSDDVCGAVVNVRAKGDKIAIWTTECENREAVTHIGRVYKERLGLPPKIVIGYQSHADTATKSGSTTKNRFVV
Procedure: as §3, §1, §2

[6] = system: eIF4E S209 phosphorylation; test: AlphaScreen Surefire eIF4E S209 phosphorylation assay in PANC-1 cells; type: cell-based
Procedure: (§4) Ninety-six-well plates were seeded at 30,000 cells per well with non-transfected PC-3, PANC-1 or HKEK293 cells in DMEM with 10% FCS and incubated overnight. Cells were then washed with PBS and the media replaced with OPTI-MEM containing no serum. Cells were then treated with the indicated compounds. Controls were performed with DMSO vehicle treatments. Four hours post treatments, cells were lysed with 50 μl of passive lysis buffer (PerkinElmer) for 15 min and 10 μl of lysate from each well was transferred into a white bottom 384-well plate. GAPDH and pS209 eIF4E levels were assessed according to the manufacturer’s instructions (PerkinElmer) for each sample. Luminescence was measured using an Envision Multiplate reader (PerkinElmer).

[7] = system: eIF4E S209 phosphorylation; test: AlphaScreen Surefire eIF4E S209 phosphorylation assay in PC-3 cells; type: cell-based; conditions: PC3 cells, 4E-BP1 protein levels high, normalised to GAPDH, read-out: pEIF4E SureFire (IC50)
Procedure: as §4

PC-3 cells = test: Cell viability by intracellular ATP (CellTiter-GLO) in PC-3 cells; type: cell-based; conditions: NanoBit co-transfected PC-3 cells, 4 h
Procedure: as §2

[8] = HEK293, 4 h treatment, read-out: IC50, NanoBit eIF4E:eIF4G^604–646 signal

## Cn1c(=O)n(-c2ccc(C(C)(C)C#N)cc2)c2c3cc(-c4cnc5ccccc5c4)ccc3ncc21 [BEZ235]
[1]; PC3 cells, si4EBP1 versus siCtrl
  Effect of siRNA 4EBP1 knockdown on activity: strongly attenuated
[1]
  Activity in NanoBit system: mid-nanomolar range
[2]; HEK293, 4 h, read-out: apparent IC50, NanoBit eIF4E:eIF4G^604–646 signal
  IC50: 8 ± 0.7 nM
[2]; HEK293, si4EBP1 versus siCtrl
  Attenuation of potency by siRNA-mediated knockdown of 4EBP1: substantially reduced
[2]
  Extent of disruption of NanoBit signal / eIF4F complex: achieved maximal inhibition of eIF4F activity
[2]; HEK293 co-transfected with GFP-MYC versus GFP control
  Decrease in potency on overexpression of GFP-MYC: over an order of magnitude
[3]; 4 h
  Activity in NanoBit system: dramatically attenuated

## CC(C)Nc1cc(-c2c[nH]c(C(=O)N[C@H](CO)c3cccc(Cl)c3)c2)c(Cl)cn1 [Ulixertinib]
[2]; [8]
  IC50: 4700 ± 1800 nM

## CO[C@H]1C[C@@H]2CC[C@@H](C)[C@@](O)(O2)C(=O)C(=O)N2CCCC[C@H]2C(=O)O[C@H]([C@H](C)C[C@@H]2CC[C@@H](O)[C@H](OC)C2)CC(=O)[C@H](C)/C=C(\C)[C@@H](O)[C@@H](OC)C(=O)[C@H](C)C[C@H](C)/C=C/C=C/C=C/1C [Rapamycin]
HEK293 cells
  Effect on cell viability (intracellular ATP): neither Rapamycin, Torin nor PP242 affected the cells adversely
[2]; [8]
  IC50: 6880 ± 880 nM

## O=C(Nc1ccc2[nH]nc(-c3ccncc3)c2c1)[C@@H]1CCN(CC(=O)N2CCN(c3ccc(-c4ncccn4)cc3)CC2)C1 [SCH772984]
[2]; [8]
  IC50: 2600 ± 1800 nM
[2]; HEK293, SCH-772984 constant at 1 μM
  Effect on eIF4F disruption in combination with Ipasertib titration: additive effect

## O=C(O)C(Cc1ccccc1[N+](=O)[O-])=NNc1nc(-c2ccc(Cl)c(Cl)c2)cs1 (mixture of isomers) [4EGi-1]
[4]
  Inhibition of full-length luciferase signal (counter-screen): Non-specific inhibition of the luciferase signal
HEK293 cells
  Effect on cell viability (intracellular ATP): only 4ER1Cat was observed to have an effect
[2]
  Extent of disruption of NanoBit signal / eIF4F complex: neither achieved complete disruption of the signal
eIF4E-eIF4G interface
  Kd: 25000 nM

## O=C(O)c1ccc(N2C(=O)/C(=C\c3ccc(-c4ccc([N+](=O)[O-])cc4)o3)C=C2c2ccccc2)cc1 [4E1RCat]
[4]
  Inhibition of full-length luciferase signal (counter-screen): Non-specific inhibition of the luciferase signal
HEK293 cells
  Effect on cell viability (intracellular ATP): observed to have an effect
[2]
  Extent of disruption of NanoBit signal / eIF4F complex: neither achieved complete disruption of the signal
[5]
  IC50: 600 ± 150 nM
eIF4E-eIF4G interface
  Kd: 3200 nM

## CC(C)n1nc(-c2cc3cc(O)ccc3[nH]2)c2c(N)ncnc21 [PP242]
HEK293 cells
  Effect on cell viability (intracellular ATP): neither Rapamycin, Torin nor PP242 affected the cells adversely

## CC(C)NC[C@@H](C(=O)N1CCN(c2ncnc3c2[C@H](C)C[C@H]3O)CC1)c1ccc(Cl)cc1 [Ipasertib]
[2]; [8]
  IC50: 170 ± 24 nM

## CCC(=O)N1CCN(c2ccc(-n3c(=O)ccc4cnc5ccc(-c6cnc7ccccc7c6)cc5c43)cc2C(F)(F)F)CC1 [Torin]
[6]; PANC cells, 4E-BP1 protein levels low, normalised to GAPDH
  pEIF4E SureFire (IC50, μM): No Inhibition
[7]; Homo sapiens, PC-3
  IC50: 100 ± 20 nM
HEK293 cells
  Effect on cell viability (intracellular ATP): neither Rapamycin, Torin nor PP242 affected the cells adversely
[1]; PC3 cells, 4E-BP1 protein levels high, read-out: NanoBit eIF4E:4G (IC50)
  IC50: 20 ± 10 nM
[2]; [8]
  IC50: 60 ± 10 nM
[3]; 4E-BP1 protein levels low, read-out: NanoBit eIF4E:4G (IC50)
  IC50: 130 ± 30 nM

## Nc1ncnc2n[nH]c(Nc3ccc(F)cc3)c12 [CGP57380]
[6]; PANC1 cells compared with PC-3
  Decrease in ability to prevent phosphorylation of eIF4E, PANC1 versus PC-3: twofold
[6]; PANC cells, 4E-BP1 protein levels low, normalised to GAPDH, read-out: pEIF4E SureFire (IC50)
  IC50: 6200 ± 1300 nM
[7]
  IC50: 3000 ± 1700 nM
PC-3 cells
  Effect on cell viability: no decrease in the luminescence signal or decrease in cell viability
[1]; PC3 cells, 4E-BP1 protein levels high
  NanoBit eIF4E:4G (IC50, μM): No Inhibition
[1]
  Activity in NanoBit system: no decrease in the luminescence signal
[2]; HEK293, CGP57380 at constant concentrations, 4 h
  Effect on NanoBit luminescence signal in combination with Ipasertib versus Ipasertib alone: did not lead to a larger decrease of the luminescence signal
[3]; 4E-BP1 protein levels low
  NanoBit eIF4E:4G (IC50, μM): No Inhibition

— article PMC6530213, “Monitoring flux in signalling pathways through measurements of 4EBP1-mediated eIF4F complex assembly” (BMC Biology, 2019)
